Assay results: PMC9120017, “Inhibition mechanism of the chloride channel TMEM16A by the pore blocker 1PBC” (Nature Communications, 2022)
pIC50: −log10 of the molar value. Read-outs that look alike come from different tables or passages of the source.

Biological target: T1, mouse TMEM16A mutant T539A (Mus musculus, UniProt Q8BHY3, T539A)
T1 construct: expressed in transfected cells; host or cells: HEK293T
T1 sequence (Q8BHY3 1-960 T539A): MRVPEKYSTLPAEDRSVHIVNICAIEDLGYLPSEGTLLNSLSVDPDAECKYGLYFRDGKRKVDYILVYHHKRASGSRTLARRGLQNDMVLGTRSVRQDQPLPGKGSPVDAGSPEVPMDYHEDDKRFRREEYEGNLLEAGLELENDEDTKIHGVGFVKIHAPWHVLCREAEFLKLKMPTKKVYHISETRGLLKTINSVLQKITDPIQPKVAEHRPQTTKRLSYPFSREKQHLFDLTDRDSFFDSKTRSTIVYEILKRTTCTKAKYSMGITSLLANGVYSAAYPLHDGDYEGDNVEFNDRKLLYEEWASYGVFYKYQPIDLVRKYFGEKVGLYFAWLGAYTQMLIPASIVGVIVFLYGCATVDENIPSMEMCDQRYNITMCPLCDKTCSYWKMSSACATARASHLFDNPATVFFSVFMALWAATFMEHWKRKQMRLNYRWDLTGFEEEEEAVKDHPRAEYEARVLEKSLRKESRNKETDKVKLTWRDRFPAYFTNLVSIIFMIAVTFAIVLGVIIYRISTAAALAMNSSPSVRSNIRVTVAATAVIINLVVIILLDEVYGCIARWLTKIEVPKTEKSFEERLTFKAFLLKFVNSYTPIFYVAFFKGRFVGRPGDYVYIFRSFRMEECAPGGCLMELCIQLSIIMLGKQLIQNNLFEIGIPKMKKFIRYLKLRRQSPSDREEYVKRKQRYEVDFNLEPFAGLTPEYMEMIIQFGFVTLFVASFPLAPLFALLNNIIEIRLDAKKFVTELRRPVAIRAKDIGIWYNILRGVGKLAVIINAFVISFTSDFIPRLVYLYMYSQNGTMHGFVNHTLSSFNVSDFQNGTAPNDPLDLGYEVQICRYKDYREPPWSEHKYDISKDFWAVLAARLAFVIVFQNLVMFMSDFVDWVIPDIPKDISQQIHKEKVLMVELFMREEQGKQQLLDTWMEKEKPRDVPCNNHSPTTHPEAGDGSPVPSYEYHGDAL
Assay: Inside-out patch recording of 1PBC block, mutant T539A
Type: cell-based
Details: for remaining activity at 100 µM: 100 µM 1PBC
Protocol: HEK293T cells (ATCC CRL-1573) were maintained in Dulbecco’s modified Eagle’s medium (DMEM; Sigma-Aldrich) supplemented with 10 U ml^−1 penicillin, 0.1 mg ml^−1 streptomycin (Sigma-Aldrich), 2 mM L-glutamine (Sigma-Aldrich), and 10% FBS (Sigma-Aldrich) in a humidified atmosphere containing 5% CO2 at 37 °C. HEK293S GnTI^− cells (ATCC CRL-3022) were maintained in HyClone HyCell TransFx-H medium (GE Healthcare) supplemented with 10 U ml^−1 penicillin, 0.1 mg ml^−1 streptomycin, 4 mM L-glutamine, 0.15% poloxamer 188 (Sigma-Aldrich), and 1% FBS in an atmosphere containing 5% CO2 at 185 rpm at 37 °C. The ac splice variant of mouse TMEM16A (UniProt ID: Q8BHY3), mouse TMEM16B (UniProt ID: Q8CFW1), or mouse TMEM16F (UniProt ID: Q6P9J9) bearing a 3C cleavage site, a Venus YFP, a Myc tag, and a Streptavidin-binding peptide (SBP) downstream of the open reading frame in a modified pcDNA3.1 vector (Invitrogen) were used as described previously[21],[31]. Mutations were introduced using a modified QuikChange method[58] and were verified by sequencing.
HEK293T cells were transfected with 3–4 μg DNA per 6 cm Petri dish using the calcium phosphate co-precipitation method and were used within 24–96 h after transfection. Recordings were performed on inside-out patches excised from HEK293T cells expressing the construct of interest. Patch pipettes were pulled from borosilicate glass capillaries (O.D. 1.5 mm, I.D. 0.86 mm, Sutter Instrument) and were fire-polished with a microforge (Narishige) before use. Pipette resistance was typically 3–8 MΩ when filled with the recording solutions detailed below. Seal resistance was typically 4 GΩ or higher. Voltage-clamp recordings were made using Axopatch 200B, Digidata 1550, and Clampex 10.7 (Molecular Devices). Analog signals were filtered with the in-built 4-pole Bessel filter at 10 kHz and were digitized at 20 kHz. Solution exchange was achieved using a gravity-fed system through a theta glass pipette mounted on an ultra-fast piezo-driven stepper (Siskiyou). […] All recordings were performed at 20 °C.
A symmetrical ionic condition was used throughout. Stock solution with Ca^2+-EGTA contained 150 mM NaCl, 5.99 mM Ca(OH)2, 5 mM EGTA, and 10 mM HEPES at pH 7.40. Stock solution with EGTA contained 150 mM NaCl, 5 mM EGTA, and 10 mM HEPES at pH 7.40. Free Ca^2+ concentrations were adjusted by mixing the stock solutions at the required ratios calculated using the WEBMAXC program (http://web.stanford.edu/~cpatton/webmaxcS.htm). Patch pipettes were filled with the stock solution with Ca^2+-EGTA, which has a free Ca^2+ concentration of 1 mM. 1PBC (ChemBridge) stock was reconstituted in anhydrous DMSO (Sigma-Aldrich) at 100 mM and stored at −20 °C. Working solutions with 1PBC were prepared by serial dilution. Unless otherwise stated, experiments were performed at a saturating Ca^2+ concentration as shown in Supplementary Table 1 and the primary data were corrected for current rundown as described previously[21],[25].
Concentration-response relations, obtained from the ratio of the I-V plots before and after the application of the blocker, were fitted to the Hill equation,1 I/Imax=1/1+IC50/[blocker]^h where I/Imax is the normalized current responses, IC50 defines the concentration at which inhibition is at its half-maximum, and h is the Hill coefficient.

N#Cc1c(C(F)(F)F)cc(O)n2c1nc1ccccc12 [1PBC]
pIC50 (0 mV, 2 µM Ca2+): 4.83 | remaining activity at 3 µM (3 µM 1PBC, +80 mV, saturating Ca2+ (2 µM), read-out: I/Imax): 77.1% | remaining activity at 3 µM (3 µM 1PBC, -80 mV, saturating Ca2+ (2 µM), read-out: I/Imax): 91.4% | remaining activity at 10 µM (10 µM 1PBC, +80 mV, saturating Ca2+ (2 µM), read-out: I/Imax): 45.4% | remaining activity at 10 µM (10 µM 1PBC, -80 mV, saturating Ca2+ (2 µM), read-out: I/Imax): 71.2% | remaining activity at 30 µM (30 µM 1PBC, +80 mV, saturating Ca2+ (2 µM), read-out: I/Imax): 23.5% | remaining activity at 30 µM (30 µM 1PBC, -80 mV, saturating Ca2+ (2 µM), read-out: I/Imax): 49.4% | remaining activity at 100 µM (+80 mV, saturating Ca2+ (2 µM), read-out: I/Imax): 8.95% | remaining activity at 100 µM (-80 mV, saturating Ca2+ (2 µM), read-out: I/Imax): 25% | remaining activity at 3 µM (1PBC 3, 0 mV, read-out: fraction of unblocked current): 85.3% | remaining activity at 3 µM (1PBC 3, 20 mV, read-out: fraction of unblocked current): 83.3% | remaining activity at 3 µM (1PBC 3, 40 mV, read-out: fraction of unblocked current): 80.1% | remaining activity at 3 µM (1PBC 3, 60 mV, read-out: fraction of unblocked current): 78.3% | remaining activity at 3 µM (1PBC 3, 80 mV, read-out: fraction of unblocked current): 77.1% | remaining activity at 3 µM (1PBC 3, 100 mV, read-out: fraction of unblocked current): 77.2% | remaining activity at 3 µM (1PBC 3, 120 mV, read-out: fraction of unblocked current): 77.7% | remaining activity at 3 µM (1PBC 3, 140 mV, read-out: fraction of unblocked current): 79.8% | remaining activity at 3 µM (1PBC 3, -20 mV, read-out: fraction of unblocked current): 87.2% | remaining activity at 3 µM (1PBC 3, -40 mV, read-out: fraction of unblocked current): 88.4% | remaining activity at 3 µM (1PBC 3, -60 mV, read-out: fraction of unblocked current): 90% | remaining activity at 3 µM (1PBC 3, -80 mV, read-out: fraction of unblocked current): 91.4% | remaining activity at 3 µM (1PBC 3, -100 mV, read-out: fraction of unblocked current): 92.2% | remaining activity at 3 µM (1PBC 3, -120 mV, read-out: fraction of unblocked current): 93.2% | remaining activity at 3 µM (1PBC 3, -140 mV, read-out: fraction of unblocked current): 93.5% | remaining activity at 10 µM (1PBC 10, 0 mV, read-out: fraction of unblocked current): 56.5% | remaining activity at 10 µM (1PBC 10, 20 mV, read-out: fraction of unblocked current): 53.9% | remaining activity at 10 µM (1PBC 10, 40 mV, read-out: fraction of unblocked current): 50.2% | remaining activity at 10 µM (1PBC 10, 60 mV, read-out: fraction of unblocked current): 47.6% | remaining activity at 10 µM (1PBC 10, 80 mV, read-out: fraction of unblocked current): 45.4% | remaining activity at 10 µM (1PBC 10, 100 mV, read-out: fraction of unblocked current): 44.7% | remaining activity at 10 µM (1PBC 10, 120 mV, read-out: fraction of unblocked current): 45.3% | remaining activity at 10 µM (1PBC 10, 140 mV, read-out: fraction of unblocked current): 47% | remaining activity at 10 µM (1PBC 10, -20 mV, read-out: fraction of unblocked current): 59.1% | remaining activity at 10 µM (1PBC 10, -40 mV, read-out: fraction of unblocked current): 63.7% | remaining activity at 10 µM (1PBC 10, -60 mV, read-out: fraction of unblocked current): 67.6% | remaining activity at 10 µM (1PBC 10, -80 mV, read-out: fraction of unblocked current): 71.2% | remaining activity at 10 µM (1PBC 10, -100 mV, read-out: fraction of unblocked current): 73.9% | remaining activity at 10 µM (1PBC 10, -120 mV, read-out: fraction of unblocked current): 76.5% | remaining activity at 10 µM (1PBC 10, -140 mV, read-out: fraction of unblocked current): 78.6% | remaining activity at 30 µM (1PBC 30, 0 mV, read-out: fraction of unblocked current): 34.9% | remaining activity at 30 µM (1PBC 30, 20 mV, read-out: fraction of unblocked current): 31% | remaining activity at 30 µM (1PBC 30, 40 mV, read-out: fraction of unblocked current): 27.7% | remaining activity at 30 µM (1PBC 30, 60 mV, read-out: fraction of unblocked current): 25.4% | remaining activity at 30 µM (1PBC 30, 80 mV, read-out: fraction of unblocked current): 23.5% | remaining activity at 30 µM (1PBC 30, 100 mV, read-out: fraction of unblocked current): 22.5% | remaining activity at 30 µM (1PBC 30, 120 mV, read-out: fraction of unblocked current): 21.8% | remaining activity at 30 µM (1PBC 30, 140 mV, read-out: fraction of unblocked current): 22.4% | remaining activity at 30 µM (1PBC 30, -20 mV, read-out: fraction of unblocked current): 38.8% | remaining activity at 30 µM (1PBC 30, -40 mV, read-out: fraction of unblocked current): 42.4%
